In US12612384B2, “Heterocyclic CYP4A inhibitor compounds and compositions thereof” (MBD CO., LTD., priority 2021, dated 2026) one finds inhibition data, which are given here for 30 compounds.

Structures are written as SMILES.

The first experiment deals with T1, CYP4A (Homo sapiens, UniProt Q02928).
T1 construct: purchased; host or cells: bacterial membranes ('bactosome')
T1 sequence (Q02928 5-519): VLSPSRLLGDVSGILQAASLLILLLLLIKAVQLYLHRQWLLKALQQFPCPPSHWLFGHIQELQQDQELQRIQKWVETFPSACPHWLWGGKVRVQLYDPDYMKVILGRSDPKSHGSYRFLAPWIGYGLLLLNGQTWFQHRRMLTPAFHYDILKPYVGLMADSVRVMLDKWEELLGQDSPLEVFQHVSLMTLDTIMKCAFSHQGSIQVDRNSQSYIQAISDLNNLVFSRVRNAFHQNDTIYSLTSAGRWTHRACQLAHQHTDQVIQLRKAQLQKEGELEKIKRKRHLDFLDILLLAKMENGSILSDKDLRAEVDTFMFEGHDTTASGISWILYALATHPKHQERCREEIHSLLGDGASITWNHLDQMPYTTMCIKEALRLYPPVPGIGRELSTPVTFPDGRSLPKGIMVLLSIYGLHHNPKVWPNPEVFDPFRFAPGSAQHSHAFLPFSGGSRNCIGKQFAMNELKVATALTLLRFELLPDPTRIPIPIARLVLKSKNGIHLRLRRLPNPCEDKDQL
The experiment in a line: CYP4A enzyme assay (luminescence, Luciferin-ME). The class given is biochemical. To be noted: Compound concentration 5 μM; 50%-70%; read-out: % Inhibition 50%-70%. In a few lines:
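Compounds (5 μM) were preincubated 15 min at room temperature with CYP4A bactosomes in 100 mM KPO4, 0.1% BSA, 1 mM DTT. Reaction ran 30 min at room temperature after adding 5 mM Luciferin-ME and NADPH regeneration system. Luminescence after 15 min with detection reagent; inhibition judged by comparing well signals.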
As to `O=C(C1CCCN(S(=O)(=O)c2cccnc2)C1)N1CCN(c2cc(C(F)(F)F)nc3ccccc23)CC1` (stereo not drawn) [Example 129, (1-(pyridin-3-ylsulfonyl)piperidin-3-yl)(4-(2-(trifluoromethyl)quinolin-4-yl)piperazin-1-yl)methanone], the inhibition at 5 µM is 50 to 70%. As for `COC(=O)CCS(=O)(=O)N1CCCC(C(=O)N2CCN(c3ccnc4cc(F)ccc34)CC2)C1` (stereo not drawn) [Example 130, methyl 3-((3-(4-(7-fluoroquinolin-4-yl)piperazine-1-carbonyl)piperidin-1-yl)sulfonyl)propanoate], the inhibition at 5 µM was in the range of 50 to 70%.

For `COC(=O)CCS(=O)(=O)N1CCCC(C(=O)N2CCN(c3ccnc4ccccc34)CC2)C1` (stereo not drawn) [Example 132, methyl 3-((3-(4-(quinolin-4-yl)piperazine-1-carbonyl)piperidin-1-yl)sulfonyl)propanoate], the inhibition at 5 µM was in the range of 50 to 70%. In the case of `O=C(C1CCN(Cc2ccc([N+](=O)[O-])cc2)C1)N1CCN(c2ccnc3ccccc23)CC1` (stereo not drawn) [Example 153, (1-(4-nitrobenzyl)pyrrolidin-3-yl)(4-(quinolin-4-yl)piperazin-1-yl)methanone], the inhibition at 5 µM lay in the range of 50 to 70%. On to `O=C(C1CCCN(S(=O)(=O)C2CC2)C1)N1CCN(c2ccnc3ccccc23)CC1` (stereo not drawn) [Example 122, (1-(cyclopropylsulfonyl)piperidin-3-yl)(4-(quinolin-4-yl)piperazin-1-yl)methanone], for which the inhibition at 5 µM was 50 to 70%.

Regarding `Cc1ccc(S(=O)(=O)N2CCCC(C(=O)N3CCN(c4ncnc5ccccc45)CC3)C2)cc1` (stereo not drawn) [Example 75, (4-(quinazolin-4-yl)piperazin-1-yl)(1-tosylpiperidin-3-yl)methanone], the inhibition at 5 µM lay in the range of 50 to 70%. The same measure, in the same setting: as for `O=C(C1CCCN(C(=O)C2CCCCC2)C1)N1CCN(c2ccnc3cc(Cl)ccc23)CC1` (stereo not drawn) [Example 86, (4-(7-chloroquinolin-4-yl)piperazin-1-yl)(1-(cyclohexylcarbonyl)piperidin-3-yl)methanone], the figure is 50 to 70%; as for `Cc1nc(N2CCN(C(=O)C3CCCN(S(=O)(=O)c4ccc(N(C)C)cc4)C3)CC2)c2ccccc2n1` (stereo not drawn) [Example 82, (1-(4-(dimethylamino)phenylsulfonyl)piperidin-3-yl)(4-(2-methylquinazolin-4-yl)piperazin-1-yl)methanone], 50 to 70%.

The experiment is the same for the next values; noted with them: Compound concentration 5 μM; 70%-90%; read-out: % Inhibition 70%-90%.
Turning to `COc1ccc2c(N3CCN(C(=O)C4CCCN(C(=O)c5ccc(F)cc5)C4)CC3)ccnc2c1` (stereo not drawn) [Example 90, (1-(4-fluorobenzoyl)piperidin-3-yl)(4-(7-methoxyquinolin-4-yl)piperazin-1-yl)methanone], the inhibition at 5 µM is 70 to 90%. Consider `O=C(c1ccncc1)N1CCCC(C(=O)N2CCN(c3ccnc4cc(Cl)ccc34)CC2)C1` (stereo not drawn) [Example 87, (4-(7-chloroquinolin-4-yl)piperazin-1-yl)(1-(pyridine-4-ylcarbonyl)piperidin-3-yl)methanone], for which the inhibition at 5 µM lay in the range of 70 to 90%. As to `O=C(C1CCCN(S(=O)(=O)c2ccncc2)C1)N1CCN(c2ccnc3cc(Cl)ccc23)CC1` (stereo not drawn) [Example 124, (4-(7-chloroquinolin-4-yl)piperazin-1-yl)(1-(pyridin-4-ylsulfonyl)piperidin-3-yl)methanone], the inhibition at 5 µM lay within 70 to 90%. `Nc1cccc(S(=O)(=O)N2CC(C(=O)N3CCN(c4ccnc5cc(F)ccc45)CC3)C2)c1` [Example 72, (1-((3-aminophenyl)sulfonyl)azetidin-3-yl)(4-(7-fluoroquinolin-4-yl)piperazin-1-yl)methanone]: the inhibition at 5 µM is 70 to 90%.

With `O=C(C1CCN(S(=O)(=O)c2ncn[nH]2)CC1)N1CCN(c2ccnc3cc(F)ccc23)CC1` [Example 135, (1-((1H-1,2,4-triazol-5-yl)sulfonyl)piperidin-4-yl)(4-(7-fluoroquinolin-4-yl)piperazin-1-yl)methanone], the inhibition at 5 µM fell in the range of 70 to 90%. `CC(=O)Nc1ccc(S(=O)(=O)N2CCCC(C(=O)N3CCN(c4ncnc5ccccc45)CC3)C2)cc1` (stereo not drawn) [Example 74, N-(4-((3-(4-(quinazolin-4-yl)piperazine-1-carbonyl)piperidin-1-yl)sulfonyl)phenyl)acetamide]: the inhibition at 5 µM is 70 to 90%.

Turning to `O=C(C1CCCN(S(=O)(=O)C2CCCCC2)C1)N1CCN(c2ccnc3ccccc23)CC1` (stereo not drawn) [Example 121, (1-(cyclohexylsulfonyl)piperidin-3-yl)(4-(quinolin-4-yl)piperazin-1-yl)methanone], the inhibition at 5 µM lay in the range of 70 to 90%. `O=C(C1CCCN(S(=O)(=O)c2ccc(O)cc2)C1)N1CCN(c2ncnc3ccccc23)CC1` (stereo not drawn) [Example 78, (1-((4-hydroxyphenyl)sulfonyl)piperidin-3-yl)(4-(quinazolin-4-yl)piperazin-1-yl)methanone]: the inhibition at 5 µM was 70 to 90%.

The experiment is the same for the next values; noted with them: Compound concentration 5 μM; Greater than 90%; read-out: % Inhibition Greater than 90%.
With `O=C(C1CCN(S(=O)(=O)c2ccc(-c3cnco3)cc2)C1)N1CCN(c2ccnc3cc(F)ccc23)CC1` (stereo not drawn) [Example 15, (4-(7-fluoroquinolin-4-yl)piperazin-1-yl)(1-((4-(oxazol-5-yl)phenyl)sulfonyl)pyrrolidin-3-yl)methanone], the inhibition at 5 µM is > 90%.

As for `CC(=O)Nc1ccc(S(=O)(=O)N2CC(C(=O)N3CCN(c4ccnc5cc(F)ccc45)CC3)C2)cc1` [Example 65, N-(4-((3-(4-(7-fluoroquinolin-4-yl)piperazine-1-carbonyl)azetidin-1-yl)sulfonyl)phenyl)acetamide], the inhibition at 5 µM was > 90%. On the same count and under the same terms, with `O=C(C1CCN(S(=O)(=O)c2ccc(-c3cccnc3)cc2)C1)N1CCN(c2ccnc3ccccc23)CC1` (stereo not drawn) [Example 32, (1-((4-(pyridin-3-yl)phenyl)sulfonyl)pyrrolidin-3-yl)(4-(quinolin-4-yl)piperazin-1-yl)methanone] the figure was > 90%. On the same count and under the same terms, as for `O=C(C1CN(S(=O)(=O)c2ccc(O)cc2)C1)N1CCN(c2ccnc3cc(F)ccc23)CC1` [Example 66, (4-(7-fluoroquinolin-4-yl)piperazin-1-yl)(1-((4-hydroxyphenyl)sulfonyl)azetidin-3-yl)methanone], the figure is > 90%; as for `CN(C)c1ccc(S(=O)(=O)N2CCC(C(=O)N3CCN(c4ccnc5cc(F)ccc45)CC3)C2)cc1` (stereo not drawn) [Example 3, (1-((4-(dimethylamino)phenyl)sulfonyl)pyrrolidin-3-yl)(4-(7-fluoroquinolin-4-yl)piperazin-1-yl)methanone], > 90%; as for `CC(=O)Nc1cccc(S(=O)(=O)N2CCC(C(=O)N3CCN(c4ccnc5cc(F)ccc45)CC3)CC2)c1` [Example 55, N-(3-((4-(4-(7-fluoroquinolin-4-yl)piperazine-1-carbonyl)piperidin-1-yl)sulfonyl)phenyl)acetamide], > 90%. As for `O=C(c1nn[nH]n1)N1CC[C@H](C(=O)N2CCN(c3ccnc4cc(F)ccc34)CC2)C1` [Example 162, (S)-(1-(2H-tetrazole-5-carbonyl)pyrrolidin-3-yl)(4-(7-fluoroquinolin-4-yl)piperazin-1-yl)methanone], the inhibition at 5 µM is > 90%. As to `CC(=O)Nc1ccc(S(=O)(=O)N2CC[C@@H](C(=O)N3CCN(c4ccnc5cc(F)ccc45)CC3)C2)cc1` [Example 2, (R)—N-(4-((3-(4-(7-fluoroquinolin-4-yl)piperazine-1-carbonyl)pyrrolidin-1-yl)sulfonyl)phenyl)acetamide], the inhibition at 5 µM is > 90%. For the compound `Cc1nn(C)c(C)c1S(=O)(=O)N1CCC(C(=O)N2CCN(c3ccnc4ccccc34)CC2)C1` (stereo not drawn) [Example 38, (4-(quinolin-4-yl)piperazin-1-yl)(1-((1,3,5-trimethyl-1H-pyrazol-4-yl)sulfonyl)pyrrolidin-3-yl)methanone], the inhibition at 5 µM is > 90%. With `CC(=O)Nc1ccc(C(=O)N2CCCC(C(=O)N3CCN(c4ccnc5cc(Cl)ccc45)CC3)C2)cc1` (stereo not drawn) [Example 83, N-(4-(3-(1-(7-chloroquinolin-4-yl)piperazine-4-carbonyl)piperidine-1-carbonyl)phenyl)acetamide], the inhibition at 5 µM is > 90%. As for `Cn1ccnc1S(=O)(=O)N1CC[C@@H](C(=O)N2CCN(c3ccnc4cc(F)ccc34)CC2)C1` [Example 6, (R)-(4-(7-fluoroquinolin-4-yl)piperazin-1-yl)(1-((1-methyl-1H-imidazol-2-yl)sulfonyl)pyrrolidin-3-yl)methanone], the inhibition at 5 µM was > 90%.

Take `O=C(C1CCCN(S(=O)(=O)c2ccc(N3CCOCC3)nc2)C1)N1CCN(c2ccnc3cc(F)ccc23)CC1` (stereo not drawn) [Example 61, (4-(7-fluoroquinolin-4-yl)piperazin-1-yl)(1-((6-morpholinopyridin-3-yl)sulfonyl)piperidin-3-yl)methanone]: the inhibition at 5 µM is > 90%. As for `CC(=O)Nc1nc(C)c(S(=O)(=O)N2CCC(C(=O)N3CCN(c4ccnc5ccccc45)CC3)C2)s1` (stereo not drawn) [Example 47, N-(4-methyl-5-((3-(4-(quinolin-4-yl)piperazine-1-carbonyl)pyrrolidin-1-yl)sulfonyl)thiazol-2-yl)acetamide], the inhibition at 5 µM is > 90%. Turning to `Cc1nn(C)c(C)c1S(=O)(=O)N1CCC(C(=O)N2CCN(c3ccnc4cc(F)ccc34)CC2)C1` (stereo not drawn) [Example 12, (4-(7-fluoroquinolin-4-yl)piperazin-1-yl)(1-((1,3,5-trimethyl-1H-pyrazol-4-yl)sulfonyl)pyrrolidin-3-yl)methanone], the inhibition at 5 µM is > 90%.
